The data set concerns rodent lifetime carcinogenesis bioassay, tumor incidence TD50. As to the kind of experiment: chronic cancer bioassays in animals – CPDB, compiled studies (AID 1745844).

Active and inactive are the calls of the source. How the calls were made is not given here.

With `NCCCC(N)(C(=O)O)C(F)F` (stereo not drawn), under “rat, strain Wistar, males, in feed, site: stomach, glandular, lesion: one or several types, types not named, dosed 70 weeks, study length 70 weeks”, the carcinogen call is “negative (inactive)”.

Regarding `ClC(Cl)C(Cl)Cl`, the TD50 runs as follows: (mouse, strain B6C3F1, females, by gavage, site: any site (literature study), lesion: several types, types named in the paper, dosed 78 weeks, study length 92 weeks) 37.2 mg/kg/day; (mouse, strain B6C3F1, females, by gavage, site: liver, lesion: hepatocellular adenoma + hepatocellular carcinoma + neoplastic nodule, dosed 78 weeks, study length 92 weeks) 35.4 mg/kg/day; (mouse, strain B6C3F1, females, by gavage, site: liver, lesion: hepatocellular carcinoma, dosed 78 weeks, study length 91 weeks) 35.8 mg/kg/day; (mouse, strain B6C3F1, females, by gavage, site: liver, lesion: hepatocellular carcinoma, dosed 78 weeks, study length 92 weeks) 35.4 mg/kg/day; (mouse, strain B6C3F1, females, by gavage, site: lung, lesion: alveolar/bronchiolar adenoma + alveolar/bronchiolar carcinoma, dosed 78 weeks, study length 92 weeks) 1910 mg/kg/day; (mouse, strain B6C3F1, males, by gavage, site: any site (literature study), lesion: several types, types named in the paper, dosed 78 weeks, study length 92 weeks) 38.7 mg/kg/day. For the same molecule, the TD50 is, setting by setting: (mouse, strain B6C3F1, males, by gavage, site: liver, lesion: hepatocellular adenoma + hepatocellular carcinoma + neoplastic nodule, dosed 78 weeks, study length 92 weeks) 41.6 mg/kg/day; (mouse, strain B6C3F1, males, by gavage, site: liver, lesion: hepatocellular carcinoma, dosed 78 weeks, study length 91 weeks) 45.4 mg/kg/day; (mouse, strain B6C3F1, males, by gavage, site: liver, lesion: hepatocellular carcinoma, dosed 78 weeks, study length 92 weeks) 41.6 mg/kg/day; (mouse, strain B6C3F1, males, by gavage, site: lung, lesion: alveolar/bronchiolar adenoma + alveolar/bronchiolar carcinoma, dosed 78 weeks, study length 92 weeks) 895 mg/kg/day; (rat, strain Osborne-Mendel, females, by gavage, site: any site (literature study), lesion: several types, types named in the paper, dosed 77 weeks, study length 110 weeks) 84.2 mg/kg/day (inactive); (rat, strain Osborne-Mendel, males, by gavage, site: liver, lesion: hepatocellular adenoma + hepatocellular carcinoma + neoplastic nodule, dosed 77 weeks, study length 110 weeks) 624 mg/kg/day. Besides, the carcinogen call (rat, strain Osborne-Mendel, males, by gavage, site: any site (literature study), lesion: several types, types named in the paper, dosed 77 weeks, study length 110 weeks) is “negative (inactive)”.

For the molecule `Nc1ccc(NC(=O)c2ccc(N)cc2)cc1`, the carcinogen call by setting is: (mouse, strain BALB/cLacDp, females, in feed, site: liver, lesion: several types, types named in the paper, dosed 60 weeks, study length 132 weeks) “negative (inactive)”; (mouse, strain BALB/cLacDp, males, in feed, site: liver, lesion: several types, types named in the paper, dosed 60 weeks, study length 132 weeks) “negative (inactive)”; (mouse, strain BALB/cLacDp, males, in feed, site: lung, lesion: several types, types named in the paper, dosed 60 weeks, study length 132 weeks) “negative (inactive)”. Where the note is “mouse, strain BALB/cLacDp, females, in feed, site: lung, lesion: several types, types named in the paper, dosed 60 weeks, study length 132 weeks”, the TD50 is 360 mg/kg/day (inactive).

Consider `Nc1cnn([C@@H]2O[C@H](CO)[C@@H](O)[C@H]2O)c(=O)n1`, for which the carcinogen call (rat, strain Fischer 344, males, i.p., site: any site (literature study), lesion: one or several types, types not named, dosed 52 weeks, study length 52 weeks) is “negative (inactive)”.

With `CC(=O)OCC(=O)[C@@]12N=C(C)O[C@@H]1C[C@H]1[C@@H]3CCC4=CC(=O)C=C[C@]4(C)[C@H]3[C@@H](O)C[C@@]12C`, the TD50 (rat, strain Charles River CD (Sprague-Dawley), females, in feed, site: head, lesion: osteosarcoma, dosed 104 weeks, study length 104 weeks) is 66.8 mg/kg/day. The carcinogen call is “positive” (rat, strain Charles River CD (Sprague-Dawley), males, in feed, site: bone, lesion: several types, types named in the paper, dosed 104 weeks, study length 104 weeks) and “positive” (rat, strain Charles River CD (Sprague-Dawley), males, in feed, site: head, lesion: osteosarcoma, dosed 104 weeks, study length 104 weeks).

For the molecule `O=S1(=O)N=C(O)c2ccccc21`, the carcinogen call was “negative (inactive)” (rat, strain Fischer 344, males, in feed, site: forestomach, lesion: papilloma, dosed 72 weeks, study length 73 weeks) and “negative (inactive)” (rat, strain Fischer 344, males, in feed, site: urinary bladder, lesion: carcinoma, dosed 72 weeks, study length 73 weeks).

In the case of `ClCc1cccnc1`, the TD50 runs as follows: (mouse, strain B6C3F1, females, by gavage, site: any site (literature study), lesion: several types, types named in the paper, dosed 91 weeks, study length 104 weeks) 141 mg/kg/day; (mouse, strain B6C3F1, females, by gavage, site: liver, lesion: hepatocellular adenoma + hepatocellular carcinoma + neoplastic nodule, dosed 91 weeks, study length 104 weeks) 16300 mg/kg/day; (mouse, strain B6C3F1, females, by gavage, site: lung, lesion: alveolar/bronchiolar adenoma + alveolar/bronchiolar carcinoma, dosed 91 weeks, study length 104 weeks) 1970 mg/kg/day; (mouse, strain B6C3F1, females, by gavage, site: stomach, lesion: squamous-cell carcinoma + squamous-cell papilloma, dosed 91 weeks, study length 104 weeks) 394 mg/kg/day; (mouse, strain B6C3F1, males, by gavage, site: any site (literature study), lesion: several types, types named in the paper, dosed 91 weeks, study length 104 weeks) 64.9 mg/kg/day; (mouse, strain B6C3F1, males, by gavage, site: liver, lesion: hepatocellular adenoma + hepatocellular carcinoma + neoplastic nodule, dosed 91 weeks, study length 104 weeks) 324 mg/kg/day. Also, the TD50 was 624 mg/kg/day (mouse, strain B6C3F1, males, by gavage, site: lung, lesion: alveolar/bronchiolar adenoma + alveolar/bronchiolar carcinoma, dosed 91 weeks, study length 104 weeks); 161 mg/kg/day (mouse, strain B6C3F1, males, by gavage, site: stomach, lesion: squamous-cell carcinoma + squamous-cell papilloma, dosed 91 weeks, study length 104 weeks); 160 mg/kg/day (inactive) (rat, strain Fischer 344, females, by gavage, site: any site (literature study), lesion: several types, types named in the paper, dosed 93 weeks, study length 104 weeks); 433 mg/kg/day (rat, strain Fischer 344, males, by gavage, site: stomach, lesion: squamous-cell carcinoma + squamous-cell papilloma, dosed 93 weeks, study length 104 weeks).

In the case of `CC(Cc1ccccc1)NN` (stereo not drawn), the carcinogen call is “negative (inactive)” (mouse, strain Swiss albino, females, in drinking water, site: liver, lesion: hepatoma, dosed 119 weeks, study length 127 weeks); “negative (inactive)” (mouse, strain Swiss albino, females, in drinking water, site: lung, lesion: one or several types, types not named, dosed 119 weeks, study length 127 weeks); “negative (inactive)” (mouse, strain Swiss albino, males, in drinking water, site: liver, lesion: hepatoma, dosed 100 weeks, study length 112 weeks); “negative (inactive)” (mouse, strain Swiss albino, males, in drinking water, site: lung, lesion: one or several types, types not named, dosed 100 weeks, study length 112 weeks).

On to `O=NN1CC(=O)NC1=O`, for which the TD50 was 19.6 mg/kg/day (rat, strain MRC-Wistar, females, in drinking water, site: any site (literature study), lesion: several types, types named in the paper, dosed 52 weeks, study length 110 weeks); 7.31 mg/kg/day (rat, strain MRC-Wistar, males, in drinking water, site: any site (literature study), lesion: several types, types named in the paper, dosed 52 weeks, study length 110 weeks); 27.8 mg/kg/day (rat, strain MRC-Wistar, males, in drinking water, site: forestomach, lesion: squamous-cell papilloma, dosed 52 weeks, study length 110 weeks); 43.8 mg/kg/day (rat, strain MRC-Wistar, males, in drinking water, site: pharynx, lesion: squamous-cell carcinoma, dosed 52 weeks, study length 110 weeks).

As to `O=C(O)CNCC(=O)O`, the TD50 (rat, strain MRC, females, in drinking water, site: any site (literature study), lesion: several types, types named in the paper, dosed 84 weeks, study length 104 weeks) is 143 mg/kg/day (inactive). The carcinogen call (rat, strain MRC, males, in drinking water, site: any site (literature study), lesion: several types, types named in the paper, dosed 84 weeks, study length 104 weeks) is “negative (inactive)”.

Take `[N-]=[N+]=CC(=O)OC[C@H](N)C(=O)O`: the TD50 is 0.942 mg/kg/day (rat, strain Wistar, both sexes, i.p., site: kidney, lesion: one or several types, types not named, dosed 26 weeks, study length 78 weeks); 3.02 mg/kg/day (rat, strain Wistar, both sexes, i.p., site: liver, lesion: one or several types, types not named, dosed 26 weeks, study length 78 weeks); 0.793 mg/kg/day (rat, strain Wistar, both sexes, i.p., site: pancreas, exocrine, lesion: carcinoma, dosed 26 weeks, study length 78 weeks). Also, the carcinogen call (rat, strain Wistar, males, i.p., site: pancreas, lesion: one or several types, types not named, dosed 104 weeks, study length 104 weeks) is “negative (inactive)”.

On to `O=NN1CCC[C@H]1C(=O)O`, for which the TD50 (rat, strain MRC, females, in drinking water, site: any site (literature study), lesion: several types, types named in the paper, dosed 75 weeks, study length 104 weeks) was 6.69 mg/kg/day (inactive). Besides, the carcinogen call (rat, strain MRC, males, in drinking water, site: any site (literature study), lesion: several types, types named in the paper, dosed 75 weeks, study length 104 weeks) was “negative (inactive)”.

As to `CC(O)CN(N=O)C(=O)NCCCl` (stereo not drawn), the TD50 is 0.962 mg/kg/day (rat, strain Fischer 344, females, by gavage, site: all sites, lesion: mononuclear-cell leukemia, dosed 40 weeks, study length 95 weeks); 8.81 mg/kg/day (rat, strain Fischer 344, females, by gavage, site: liver, lesion: hepatocellular carcinoma, dosed 40 weeks, study length 95 weeks); 0.885 mg/kg/day (rat, strain Fischer 344, females, by gavage, site: liver, lesion: neoplastic nodule, dosed 40 weeks, study length 95 weeks); 0.885 mg/kg/day (rat, strain Fischer 344, females, by gavage, site: liver, lesion: several types, types named in the paper, dosed 40 weeks, study length 95 weeks); 2.71 mg/kg/day (rat, strain Fischer 344, males, by gavage, site: liver, lesion: hepatocellular carcinoma, dosed 35 weeks, study length 120 weeks); 1.17 mg/kg/day (rat, strain Fischer 344, males, by gavage, site: liver, lesion: neoplastic nodule, dosed 35 weeks, study length 120 weeks). For the same molecule, the TD50 was 0.861 mg/kg/day (rat, strain Fischer 344, males, by gavage, site: liver, lesion: several types, types named in the paper, dosed 35 weeks, study length 120 weeks) and 2.39 mg/kg/day (rat, strain Fischer 344, males, by gavage, site: lung, lesion: alveolar/bronchiolar tumor, dosed 35 weeks, study length 120 weeks).

The term TD50 denotes the 50% point of the dose-response relation for the toxic effect studied.

The values are drawn from PubChem BioAssay AID1745844 (Carcinogenic Potency Database (CPDB), 2022).
